Source: ChEMBL document CHEMBL4837239, “Identification of Thieno[3,2-d]pyrimidine Derivatives as Dual Inhibitors of Focal Adhesion Kinase and FMS-like Tyrosine Kinase 3” (J Med Chem, 2021)
pIC50: −log10 of the molar value. The source made the active and inactive calls. The calls are words filed in the database; no cut-off is given here.

Tests used:
BaF3 [1] = experiment: Inhibition of FLT3-ITD/[…] mutant (unknown origin) expressed in mouse BaF3 cells assessed as decrease in autophosphorylation at 1 nM by Western blot analysis; type: cell-based; details: Homo sapiens
BaF3 [2] = experiment: Antiproliferative activity against mouse Ba/F3 cells harbouring FLT3 ITD mutant assessed as growth inhibition measured after 72 hrs by CellTiter-Glo assay; type: functional; details: Mus musculus, BaF3
[3] = target: Proto-oncogene tyrosine-protein kinase receptor Ret (Homo sapiens, UniProt P07949); experiment: Inhibition of RET (unknown origin) at 0.1 uM
MDA-MB-231 [4] = experiment: Antimetastatic activity against human MDA-MB-231 cells expressing firefly luciferase xenografted NSG orthotopic mouse model assessed as reduction in tumor weight at 70 mg/kg, po once daily measured for 2 weeks; type: functional, organism-based
MDA-MB-231 [5] = experiment: In vivo antitumor activity against human MDA-MB-231 cells xenografted in Balb/c mouse assessed as reduction in tumor mass at 40 to 70 mg/kg, po once daily measured for 16 days; type: functional, organism-based; details: dose 40-70 mg/kg, time 16.0 day
Focal adhesion kinase 1 [6] = target: T1, Focal adhesion kinase 1 (Homo sapiens, UniProt Q05397); experiment: Inhibition of FAK autophosphorylation at Y925 in human MDA-MB-231 cells at 5 uM incubated for 24 hrs by Western blot analysis; type: cell-based
Focal adhesion kinase 1 [7] = target: T1, Focal adhesion kinase 1; experiment: Inhibition of FAK autophosphorylation at Y397 in human HCT-116 cells at 5 uM incubated for 24 hrs by Western blot analysis; type: cell-based
[8] = target: Epithelial discoidin domain-containing receptor 1 (Homo sapiens, UniProt Q08345); experiment: Inhibition of DDR1 (unknown origin)
[9] = target: Tyrosine-protein kinase Lck (Homo sapiens, UniProt P06239); experiment: Inhibition of Lck (unknown origin)
HCT-116 [10] = experiment: Antiinvasive activity in human HCT-116 cells assessed as suppression of invasion at 1 uM measured after 12 hrs by trans well experiment; type: functional
BaF3 [11] = experiment: Inhibition of FLT3-ITD/[…] mutant (unknown origin) expressed in mouse Ba/F3 cells assessed as decrease in autophosphorylation at 10 nM by Western blot analysis; type: cell-based; details: Homo sapiens
[12] = Inhibition of FYK Y379 mutant phosphorylation in human MDA-MB-231 cells by in-cell western blot assay; type: cell-based
[13] = target: Ephrin type-B receptor 1 (Homo sapiens) (UniProt P54762); experiment: Inhibition of EphB1 (unknown origin) at 0.1 uM
HCT-116 [14] = experiment: Growth inhibition of anchorage-Independent human HCT-116 cells assessed as decrease in size incubated for 72 hrs by MTT assay; type: functional, cell-based; details: dose 1-10 µM
[15] = Toxicity in Balb/c mouse xenografted with human MDA-MB-231 cells assessed as change in body weight at 40 to 70 mg/kg, po once daily measured for 16 days; type: organism-based; details: in vivo, 384 h, dose 40-70 mg/kg, time 16 day
MDA-MB-231 [16] = experiment: Antimetastatic activity against human MDA-MB-231 cells expressing firefly luciferase xenografted NSG orthotopic mouse model assessed as reduction in luminescence intensity at axillary lymph node at 70 mg/kg, po once daily measured for 2 weeks; type: functional, organism-based
HCT-116 [17] = experiment: Growth inhibition of anchorage-Independent human HCT-116 cells assessed as decrease in number of colonies at 1 uM incubated for 72 hrs by MTT assay relative to control; type: functional, cell-based
[18] = target: T2, Tyrosine-protein kinase Fyn (Homo sapiens, UniProt P06241); experiment: Inhibition of Fyn (unknown origin)
Target sequence in this assay (P06241 whole entry): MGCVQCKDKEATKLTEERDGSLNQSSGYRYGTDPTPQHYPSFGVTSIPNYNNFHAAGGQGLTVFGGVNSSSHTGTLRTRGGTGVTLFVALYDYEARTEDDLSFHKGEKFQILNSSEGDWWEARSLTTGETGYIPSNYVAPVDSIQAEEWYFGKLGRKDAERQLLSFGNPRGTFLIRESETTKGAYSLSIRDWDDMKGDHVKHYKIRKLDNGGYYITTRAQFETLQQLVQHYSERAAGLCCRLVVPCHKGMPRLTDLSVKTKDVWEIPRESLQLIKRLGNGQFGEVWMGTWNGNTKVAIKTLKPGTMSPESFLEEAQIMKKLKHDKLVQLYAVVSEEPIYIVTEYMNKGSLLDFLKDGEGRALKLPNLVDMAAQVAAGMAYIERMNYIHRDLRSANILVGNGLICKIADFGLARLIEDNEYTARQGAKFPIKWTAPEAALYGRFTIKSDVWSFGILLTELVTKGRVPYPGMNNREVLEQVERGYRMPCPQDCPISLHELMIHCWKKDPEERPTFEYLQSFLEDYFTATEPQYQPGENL

[19] = target: Non-receptor tyrosine-protein kinase TYK2 (Homo sapiens, UniProt P29597); experiment: Inhibition of TYK2 (unknown origin) at 0.1 uM
Focal adhesion kinase 1 [20] = target: T1, Focal adhesion kinase 1; experiment: Inhibition of FAK autophosphorylation at Y397 in human MDA-MB-231 cells at 5 uM incubated for 24 hrs by Western blot analysis; type: cell-based
CYP2D6 = CYP2D6 (Homo sapiens, UniProt P10635); experiment: Inhibition of CYP2D6 (unknown origin) at 10 uM relative to control; type: ADME
Melanoma cell line = experiment: Antiproliferative activity against human skin cancer cells assessed as growth inhibition measured after 72 hrs by MTT assay; type: functional, cell-based
MDA-MB-231 [21] = experiment: Disruption of focal adhesion of human MDA-MB-231 cells assessed as decrease in F-actin measured after 3 hrs by Alexa Fluor 488-conjugated Ab based fluorescence analysis; type: functional; set-up: scale not given: the % may be the effect or the level left; details: dose 1-10 µM, at 1 to 10 µM
Ephrin type-B receptor 1 = Ephrin type-B receptor 1 (Homo sapiens, UniProt P54762); experiment: Inhibition of EphB1 (unknown origin)
[22] = target: T2, Tyrosine-protein kinase Fyn; experiment: Inhibition of Fyn (unknown origin) at 0.1 uM
[23] = system: T3, Receptor-type tyrosine-protein kinase FLT3 (Homo sapiens), P36888 [D835Y]; experiment: Inhibition of FLT3-D835Y mutant (unknown origin) expressed in mouse Ba/F3 cells assessed as decrease in STAT5 phosphorylation at 10 nM by Western blot analysis; type: cell-based; details: BaF3
T3 sequence (whole entry): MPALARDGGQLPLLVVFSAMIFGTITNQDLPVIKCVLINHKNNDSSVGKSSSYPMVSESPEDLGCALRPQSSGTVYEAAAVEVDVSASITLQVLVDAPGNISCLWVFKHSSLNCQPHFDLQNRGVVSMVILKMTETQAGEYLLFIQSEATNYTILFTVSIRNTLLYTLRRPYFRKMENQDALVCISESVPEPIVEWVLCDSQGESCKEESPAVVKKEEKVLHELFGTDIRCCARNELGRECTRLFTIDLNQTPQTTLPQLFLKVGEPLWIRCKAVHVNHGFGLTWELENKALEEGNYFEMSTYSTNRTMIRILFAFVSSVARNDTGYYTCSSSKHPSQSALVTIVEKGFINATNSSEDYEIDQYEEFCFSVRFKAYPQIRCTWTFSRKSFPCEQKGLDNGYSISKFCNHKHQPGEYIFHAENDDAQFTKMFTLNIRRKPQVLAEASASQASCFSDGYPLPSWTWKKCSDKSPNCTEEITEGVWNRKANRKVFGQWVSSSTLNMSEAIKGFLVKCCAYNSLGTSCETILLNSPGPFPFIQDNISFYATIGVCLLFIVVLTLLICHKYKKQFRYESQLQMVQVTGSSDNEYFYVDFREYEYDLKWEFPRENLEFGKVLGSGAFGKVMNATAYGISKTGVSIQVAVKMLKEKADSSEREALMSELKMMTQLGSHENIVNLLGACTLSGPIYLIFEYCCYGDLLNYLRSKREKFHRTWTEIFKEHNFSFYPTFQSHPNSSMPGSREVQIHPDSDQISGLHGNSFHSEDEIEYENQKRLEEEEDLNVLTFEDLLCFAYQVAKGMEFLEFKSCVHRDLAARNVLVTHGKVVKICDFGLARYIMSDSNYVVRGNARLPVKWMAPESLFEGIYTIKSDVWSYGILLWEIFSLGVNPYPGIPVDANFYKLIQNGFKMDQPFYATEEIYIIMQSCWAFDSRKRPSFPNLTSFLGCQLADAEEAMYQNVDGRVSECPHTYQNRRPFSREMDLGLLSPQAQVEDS

MDA-MB-231 [24] = experiment: Induction of apoptosis in human MDA-MB-231 cells assessed apoptotic cell death at 10 uM incubated for 24 hrs by Annexin-V/PI analysis; type: functional, cell-based

T1 sequence (Q05397 2-1052 limits assumed): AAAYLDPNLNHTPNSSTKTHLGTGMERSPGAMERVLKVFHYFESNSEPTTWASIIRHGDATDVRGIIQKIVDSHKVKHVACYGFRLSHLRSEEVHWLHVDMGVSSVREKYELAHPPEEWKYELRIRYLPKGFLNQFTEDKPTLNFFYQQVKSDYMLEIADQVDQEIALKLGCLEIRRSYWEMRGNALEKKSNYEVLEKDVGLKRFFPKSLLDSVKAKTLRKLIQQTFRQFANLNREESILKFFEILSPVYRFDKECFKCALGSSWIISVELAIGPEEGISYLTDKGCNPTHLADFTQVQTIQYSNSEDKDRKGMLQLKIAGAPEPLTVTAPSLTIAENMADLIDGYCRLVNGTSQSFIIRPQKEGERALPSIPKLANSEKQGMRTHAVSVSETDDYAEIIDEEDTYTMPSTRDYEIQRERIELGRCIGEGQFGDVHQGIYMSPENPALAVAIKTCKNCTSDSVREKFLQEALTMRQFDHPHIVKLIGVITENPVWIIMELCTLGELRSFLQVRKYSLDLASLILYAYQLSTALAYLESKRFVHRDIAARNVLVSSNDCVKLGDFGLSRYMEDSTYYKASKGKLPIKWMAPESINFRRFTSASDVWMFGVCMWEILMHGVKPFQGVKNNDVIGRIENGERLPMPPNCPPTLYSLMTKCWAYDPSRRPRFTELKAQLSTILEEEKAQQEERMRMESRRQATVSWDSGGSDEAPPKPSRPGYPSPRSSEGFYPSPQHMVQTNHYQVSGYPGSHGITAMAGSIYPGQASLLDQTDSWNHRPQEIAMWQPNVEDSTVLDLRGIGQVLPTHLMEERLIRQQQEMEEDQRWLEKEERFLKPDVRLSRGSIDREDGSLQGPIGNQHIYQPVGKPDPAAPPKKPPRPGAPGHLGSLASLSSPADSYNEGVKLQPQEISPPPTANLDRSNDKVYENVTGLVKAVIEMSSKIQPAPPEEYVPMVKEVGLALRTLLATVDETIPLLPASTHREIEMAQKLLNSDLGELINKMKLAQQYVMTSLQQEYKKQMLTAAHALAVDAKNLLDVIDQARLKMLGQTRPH
Chain of CYP2D6 (P10635 whole entry): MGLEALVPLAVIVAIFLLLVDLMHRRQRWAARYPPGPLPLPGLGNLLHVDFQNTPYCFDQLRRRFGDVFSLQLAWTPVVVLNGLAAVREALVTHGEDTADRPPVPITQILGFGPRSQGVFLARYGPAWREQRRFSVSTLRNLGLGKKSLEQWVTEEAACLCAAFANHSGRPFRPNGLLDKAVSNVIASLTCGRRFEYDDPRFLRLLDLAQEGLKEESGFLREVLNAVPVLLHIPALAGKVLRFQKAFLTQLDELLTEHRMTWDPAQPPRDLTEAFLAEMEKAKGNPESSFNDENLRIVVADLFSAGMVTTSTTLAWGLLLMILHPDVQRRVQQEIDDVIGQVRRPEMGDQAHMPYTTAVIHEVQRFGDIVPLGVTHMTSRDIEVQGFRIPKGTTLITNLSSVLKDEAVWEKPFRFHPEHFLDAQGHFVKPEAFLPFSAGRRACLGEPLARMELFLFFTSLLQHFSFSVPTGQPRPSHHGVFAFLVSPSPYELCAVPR
Chain of Proto-oncogene tyrosine-protein kinase receptor Ret (P07949 whole entry): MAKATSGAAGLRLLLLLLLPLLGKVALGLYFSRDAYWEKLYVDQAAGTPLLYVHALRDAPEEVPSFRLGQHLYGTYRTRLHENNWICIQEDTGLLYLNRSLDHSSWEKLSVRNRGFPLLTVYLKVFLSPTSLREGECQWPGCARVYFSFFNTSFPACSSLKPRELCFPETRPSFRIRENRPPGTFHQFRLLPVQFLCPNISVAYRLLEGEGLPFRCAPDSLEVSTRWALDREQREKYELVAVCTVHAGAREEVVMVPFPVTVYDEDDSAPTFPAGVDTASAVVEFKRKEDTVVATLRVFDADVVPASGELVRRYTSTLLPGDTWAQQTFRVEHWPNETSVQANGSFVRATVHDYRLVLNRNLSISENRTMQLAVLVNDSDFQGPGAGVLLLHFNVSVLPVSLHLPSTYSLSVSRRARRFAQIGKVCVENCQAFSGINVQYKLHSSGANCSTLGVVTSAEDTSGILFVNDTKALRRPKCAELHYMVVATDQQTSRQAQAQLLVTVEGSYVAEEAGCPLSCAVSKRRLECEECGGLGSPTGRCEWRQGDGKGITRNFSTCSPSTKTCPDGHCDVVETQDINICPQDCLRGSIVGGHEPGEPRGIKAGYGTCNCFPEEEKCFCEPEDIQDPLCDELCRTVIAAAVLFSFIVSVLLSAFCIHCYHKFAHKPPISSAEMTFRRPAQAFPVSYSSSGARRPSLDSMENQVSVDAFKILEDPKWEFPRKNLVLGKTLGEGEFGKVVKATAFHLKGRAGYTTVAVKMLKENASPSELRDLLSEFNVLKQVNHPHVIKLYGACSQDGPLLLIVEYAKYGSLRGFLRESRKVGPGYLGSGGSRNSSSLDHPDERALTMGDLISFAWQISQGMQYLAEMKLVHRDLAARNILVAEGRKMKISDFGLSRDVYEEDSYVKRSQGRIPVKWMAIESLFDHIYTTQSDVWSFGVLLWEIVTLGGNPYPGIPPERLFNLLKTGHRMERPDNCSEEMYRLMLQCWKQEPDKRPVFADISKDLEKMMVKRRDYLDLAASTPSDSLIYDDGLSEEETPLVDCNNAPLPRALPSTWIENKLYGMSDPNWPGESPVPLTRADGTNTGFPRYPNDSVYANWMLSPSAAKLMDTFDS
Chain of Ephrin type-B receptor 1 (Homo sapiens) (P54762 whole entry): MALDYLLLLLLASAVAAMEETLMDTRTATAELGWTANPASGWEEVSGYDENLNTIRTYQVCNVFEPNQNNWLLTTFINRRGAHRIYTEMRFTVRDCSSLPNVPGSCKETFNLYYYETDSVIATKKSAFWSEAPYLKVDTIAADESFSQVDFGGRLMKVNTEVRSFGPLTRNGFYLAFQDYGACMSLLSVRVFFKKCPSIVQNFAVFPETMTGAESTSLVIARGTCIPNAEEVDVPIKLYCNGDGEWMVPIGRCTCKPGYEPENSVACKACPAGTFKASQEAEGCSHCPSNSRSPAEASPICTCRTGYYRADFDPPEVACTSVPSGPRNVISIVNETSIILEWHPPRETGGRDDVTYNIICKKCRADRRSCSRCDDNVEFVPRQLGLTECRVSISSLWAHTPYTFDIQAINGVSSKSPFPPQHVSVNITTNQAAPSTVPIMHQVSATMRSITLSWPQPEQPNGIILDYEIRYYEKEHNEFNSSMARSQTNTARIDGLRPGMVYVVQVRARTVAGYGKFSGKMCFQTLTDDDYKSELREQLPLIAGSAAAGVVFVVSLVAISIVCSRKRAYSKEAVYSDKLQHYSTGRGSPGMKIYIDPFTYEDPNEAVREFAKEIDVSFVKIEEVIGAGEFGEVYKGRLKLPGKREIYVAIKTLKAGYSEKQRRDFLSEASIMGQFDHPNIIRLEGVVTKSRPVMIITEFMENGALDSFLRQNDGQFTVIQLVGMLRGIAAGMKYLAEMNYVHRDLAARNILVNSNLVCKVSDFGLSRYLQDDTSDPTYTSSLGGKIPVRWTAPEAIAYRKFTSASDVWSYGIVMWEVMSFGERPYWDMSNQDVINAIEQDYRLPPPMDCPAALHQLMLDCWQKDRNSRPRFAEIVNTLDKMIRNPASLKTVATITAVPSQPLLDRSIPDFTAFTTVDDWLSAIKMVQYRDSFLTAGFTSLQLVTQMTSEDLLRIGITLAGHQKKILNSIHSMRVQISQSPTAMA
Chain of Ephrin type-B receptor 1 (P54762 whole entry): as above
Chain of Tyrosine-protein kinase Lck (P06239 whole entry): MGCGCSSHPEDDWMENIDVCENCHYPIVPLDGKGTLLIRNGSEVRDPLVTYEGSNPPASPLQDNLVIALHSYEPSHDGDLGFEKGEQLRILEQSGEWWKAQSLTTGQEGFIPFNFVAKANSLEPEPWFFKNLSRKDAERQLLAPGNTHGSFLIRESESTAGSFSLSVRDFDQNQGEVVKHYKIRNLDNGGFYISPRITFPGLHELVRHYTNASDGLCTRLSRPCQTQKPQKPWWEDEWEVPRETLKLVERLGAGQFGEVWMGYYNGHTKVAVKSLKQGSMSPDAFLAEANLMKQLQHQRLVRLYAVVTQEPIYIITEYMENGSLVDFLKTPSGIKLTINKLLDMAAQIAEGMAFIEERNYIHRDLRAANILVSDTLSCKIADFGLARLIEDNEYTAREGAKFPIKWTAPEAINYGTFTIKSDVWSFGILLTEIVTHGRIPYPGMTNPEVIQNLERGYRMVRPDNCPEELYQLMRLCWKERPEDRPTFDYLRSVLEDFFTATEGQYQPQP

SMILES: CCN1CCN(c2ccc(Nc3ncc4scc(-c5cccc(NS(C)(=O)=O)c5)c4n3)cc2)CC1
- inhibition (BaF3 [1]): Active
- GI50 (BaF3 [2]): 4 nM
- inhibition [3]: 95.3%
- Activity (MDA-MB-231 [4]): Active
- Activity (MDA-MB-231 [5]): Active
- inhibition (Focal adhesion kinase 1 [6]): Active
- inhibition (Focal adhesion kinase 1 [7]): Active
- pIC50 [8]: 8.36
- pIC50 [9]: 8.11
- inhibition at 1 µM (HCT-116 [10]): 50%
- inhibition (BaF3 [11]): 100%
- pIC50 [12]: 6.59
- inhibition [13]: 91.1%
- growth inhibition (GI) (HCT-116 [14]): Active
- Activity [15]: Non-Toxic
- Activity (MDA-MB-231 [16]): Active
- growth inhibition (GI) (HCT-116 [17]): Active
- pIC50 [18]: 8.11
- inhibition [19]: 95.9%
- inhibition (Focal adhesion kinase 1 [20]): Active
- inhibition at 10 µM (CYP2D6): 100%
- Activity (Melanoma cell line): Active
- Activity (MDA-MB-231 [21]): 50%
- pIC50 (Ephrin type-B receptor 1): 7.53
- inhibition [22]: 92%
- inhibition [23]: 100%
- Activity (MDA-MB-231 [24]): Active
